Test results published in ChEMBL document CHEMBL5108030, “Structure activity relationships leading to the identification of the indirect activator of AMPK, R419” (Bioorg Med Chem, 2022).

Tests used:
[1] = biological target: AMP-activated protein kinase, AMPK; experiment: Activation of AMPK in human HepG2 cells assessed as increase in ACC phosphorylation at Ser79 incubated for 1 hr; assay type: cell-based
[2] = biological target: AMP-activated protein kinase, AMPK; experiment: Activation of AMPK in human HepG2 cells assessed as reduction in mitochondrial ATP production incubated for 1 hr; assay type: cell-based
A549 = experiment: Antiproliferative activity against human A549 cells assessed as cell growth inhibition incubated for 48 hrs by DAPI staining assay; assay type: functional, cell-based; conditions: A549, 48 h
NCI-H1299 = experiment: Antiproliferative activity against human NCI-H1299 cells assessed as cell growth inhibition incubated for 48 hrs by DAPI staining assay; assay type: functional, cell-based; conditions: NCI-H1299, 48 h
[3] = Clearance in rat at 1 mg/kg,iv measured upto 10 hrs; assay type: ADME, organism-based; conditions: in vivo
hERG (KCNH2) [4] = biological target: T1, hERG (KCNH2) (Homo sapiens, UniProt Q12809); experiment: Inhibition of human ERG at 10 uM; assay type: toxicity
[5] = Microsomal stability in human liver microsomes assessed as half life; assay type: ADME, Microsome
Cytochrome P450 3A4 [6] = biological target: T2, Cytochrome P450 3A4 (Homo sapiens, UniProt P08684); experiment: Inhibition of CYP3A4 (unknown origin) in presence of NADPH; assay type: ADME
hERG (KCNH2) [7] = biological target: T1, hERG (KCNH2); experiment: Inhibition of human ERG at 3 uM; assay type: toxicity
Cytochrome P450 3A4 [8] = biological target: T2, Cytochrome P450 3A4; experiment: Inhibition of CYP3A4 (unknown origin); assay type: ADME

T1 sequence (Q12809 whole entry): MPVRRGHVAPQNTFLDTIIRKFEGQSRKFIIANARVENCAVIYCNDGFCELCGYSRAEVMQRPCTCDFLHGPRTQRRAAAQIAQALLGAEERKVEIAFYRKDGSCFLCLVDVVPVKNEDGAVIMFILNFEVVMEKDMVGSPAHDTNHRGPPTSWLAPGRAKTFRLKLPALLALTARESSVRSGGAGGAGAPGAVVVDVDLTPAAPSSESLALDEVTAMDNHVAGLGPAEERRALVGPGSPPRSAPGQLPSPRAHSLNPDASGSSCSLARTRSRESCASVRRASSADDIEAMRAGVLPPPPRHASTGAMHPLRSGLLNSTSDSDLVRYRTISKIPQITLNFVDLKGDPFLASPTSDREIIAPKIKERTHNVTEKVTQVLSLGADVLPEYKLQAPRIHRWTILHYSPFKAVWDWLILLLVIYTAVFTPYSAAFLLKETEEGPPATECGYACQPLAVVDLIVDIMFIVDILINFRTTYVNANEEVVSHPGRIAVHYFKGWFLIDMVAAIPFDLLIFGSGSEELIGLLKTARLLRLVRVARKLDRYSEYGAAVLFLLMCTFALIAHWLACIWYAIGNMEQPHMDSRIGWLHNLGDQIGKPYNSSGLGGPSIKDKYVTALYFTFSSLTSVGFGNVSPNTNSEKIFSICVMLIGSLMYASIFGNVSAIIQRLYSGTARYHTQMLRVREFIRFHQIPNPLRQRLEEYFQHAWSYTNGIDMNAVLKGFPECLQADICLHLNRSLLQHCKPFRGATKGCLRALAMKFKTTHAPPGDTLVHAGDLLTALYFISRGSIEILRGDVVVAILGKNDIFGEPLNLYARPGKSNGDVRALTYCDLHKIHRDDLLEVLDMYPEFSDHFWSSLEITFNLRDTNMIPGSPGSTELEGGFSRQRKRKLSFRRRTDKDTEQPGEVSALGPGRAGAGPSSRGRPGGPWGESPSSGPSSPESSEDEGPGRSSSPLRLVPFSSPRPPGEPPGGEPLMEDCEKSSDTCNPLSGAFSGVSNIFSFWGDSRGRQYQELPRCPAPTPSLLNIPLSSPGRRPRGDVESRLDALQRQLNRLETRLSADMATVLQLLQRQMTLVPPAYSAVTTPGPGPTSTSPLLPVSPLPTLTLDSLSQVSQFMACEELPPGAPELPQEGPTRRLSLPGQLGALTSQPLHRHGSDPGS
T2 sequence (P08684 whole entry): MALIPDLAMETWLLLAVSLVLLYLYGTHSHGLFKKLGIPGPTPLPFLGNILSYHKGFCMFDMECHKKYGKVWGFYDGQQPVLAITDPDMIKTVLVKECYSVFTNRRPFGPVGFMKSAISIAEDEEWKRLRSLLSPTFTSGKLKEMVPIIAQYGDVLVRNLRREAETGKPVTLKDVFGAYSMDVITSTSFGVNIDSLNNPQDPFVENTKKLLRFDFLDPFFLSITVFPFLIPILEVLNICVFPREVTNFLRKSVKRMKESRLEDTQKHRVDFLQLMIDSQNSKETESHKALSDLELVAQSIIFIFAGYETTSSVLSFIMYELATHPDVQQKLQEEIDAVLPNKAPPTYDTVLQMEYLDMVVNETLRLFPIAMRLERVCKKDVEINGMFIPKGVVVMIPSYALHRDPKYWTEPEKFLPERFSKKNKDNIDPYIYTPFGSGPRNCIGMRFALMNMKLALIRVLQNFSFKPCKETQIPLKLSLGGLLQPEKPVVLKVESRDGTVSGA

SMILES	EC50 [1] [nM]	IC50 [2] [nM]	IC50 (A549) [nM]	IC50 (NCI-H1299) [nM]	also measured
O=C(NC1CCN(C(=O)C2CCCCC2)CC1)c1ccc(C(=O)N2CCN(Cc3ccc(F)cc3)CC2)cn1	300	–	–	–	–
COc1ccc(S(=O)(=O)N2CCN(C(=O)c3ccc(C(=O)NC4CCN(Cc5ccc(C#N)cc5)CC4)nc3)CC2)cc1	548	–	–	–	–
N#Cc1ccc(CN2CCC(NC(=O)c3ccc(C(=O)N4CCC(C(=O)c5ccc(F)cc5)CC4)cn3)CC2)cc1	2	21	–	–	–
COc1ccc(CN2CCC(NC(=O)c3ccc(C(=O)N4CCC(C(=O)c5ccc(N6CCCC6)cc5)CC4)nc3)CC2)cc1	57	200	13000	8400	–
O=C(NC1CCN(Cc2ccccc2)CC1)c1ccc(C(=O)NC2CCN(Cc3ccccc3)CC2)nc1	10000	–	–	–	–
N#Cc1ccc(CN2CCC(NC(=O)c3ccc(C(=O)N4CCC(C(=O)c5ccc(N6CCCC6)cc5)CC4)nc3)CC2)cc1	20	1660	5050	5390	–
N#Cc1ccc(CN2CCC(NC(=O)c3ccc(C(=O)N4CCC(Oc5ccc(F)cc5F)CC4)cn3)CC2)cc1	4	22	–	–	–
COc1ccc(CN2CCC(NC(=O)c3ccc(C(=O)N4CCC(C(=O)c5ccc(S(C)(=O)=O)cc5)CC4)nc3)CC2)cc1	1500	–	7160	8720	–
CS(=O)(=O)c1ccc(C(=O)C2CCN(C(=O)c3ccc(C(=O)NC4CCN(Cc5ccc(C#N)cc5)CC4)cn3)CC2)cc1	2000	–	6720	7190	–
O=C(NC1CCN(Cc2ccc(F)cc2)CC1)c1ccc(C(=O)N2CCC(C(=O)c3ccc(N4CCCC4)cc3)CC2)nc1	12	730	8670	9270	clearance [3]: 269 mL/min/kg; inhibition at 10 µM (hERG (KCNH2) [4]): 82%; half-life [5]: 63 min
CC(c1ccccc1)N1CCC(NC(=O)c2ccc(C(=O)N3CCN(Cc4ccc(F)cc4)CC3)cn2)CC1 (stereo not drawn)	129	–	–	–	–
O=C(c1ccc(C(=O)N2CCN(Cc3ccccc3)CC2)nc1)N1CCN(Cc2ccccc2)CC1	10000	–	–	–	–
N#Cc1ccc(CN2CCC(NC(=O)c3ccc(C(=O)N4CCN(C(=O)c5ccc(F)cc5)CC4)cn3)CC2)cc1	413	–	–	–	–
N#Cc1ccc(C(=O)N2CCC(NC(=O)c3ccc(C(=O)N4CCN(Cc5ccc(F)cc5)CC4)cn3)CC2)cc1	950	–	–	–	–
COc1ccc(OC2CCN(C(=O)c3ccc(C(=O)NC4CCN(Cc5ccc(C#N)cc5)CC4)nc3)CC2)cc1	11	60	–	–	clearance [3]: 71 mL/min/kg; IC50 (Cytochrome P450 3A4 [6]): > 10000 nM; inhibition at 3 µM (hERG (KCNH2) [7]): 46%; IC50 (Cytochrome P450 3A4 [8]): > 10000 nM; half-life [5]: 68 min
N#Cc1ccc(CN2CCC(NC(=O)c3ccc(C(=O)N4CCC(C(=O)c5ccc(F)cc5F)CC4)nc3)CC2)cc1	18	1870	–	–	inhibition at 3 µM (hERG (KCNH2) [7]): 64%
N#Cc1ccc(CN2CCC(NC(=O)c3ccc(C(=O)N4CCC(Oc5ccc(C#N)cc5)CC4)cn3)CC2)cc1	3	125	–	–	IC50 (Cytochrome P450 3A4 [6]): 3500 nM; inhibition at 3 µM (hERG (KCNH2) [7]): 47%; half-life [5]: 30 min
COc1ccc(C(=O)N2CCN(C(=O)c3ccc(C(=O)NC4CCN(Cc5ccc(C#N)cc5)CC4)nc3)CC2)cc1	175	–	–	–	–
COc1ccc(CN2CCC(NC(=O)c3ccc(C(=O)N4CCC(C(=O)c5ccc(OC)cc5)CC4)nc3)CC2)cc1	41	2310	> 20000	> 20000	inhibition at 3 µM (hERG (KCNH2) [7]): 70%
COc1ccc(C(=O)C2CCN(C(=O)c3ccc(C(=O)NC4CCN(Cc5ccc(OC(F)(F)F)cc5)CC4)cn3)CC2)cc1	9	820	> 20000	> 20000	inhibition at 10 µM (hERG (KCNH2) [4]): 21%
N#Cc1ccc(CC2CCN(C(=O)c3ccc(C(=O)NC4CCN(Cc5ccc(C#N)cc5)CC4)nc3)CC2)cc1	14	33	–	–	half-life [5]: 14 min
COc1ccc(CC2CCN(C(=O)c3ccc(C(=O)NC4CCN(Cc5ccc(C#N)cc5)CC4)nc3)CC2)cc1	1	7	–	–	IC50 (Cytochrome P450 3A4 [6]): > 10000 nM; IC50 (Cytochrome P450 3A4 [8]): 2000 nM; half-life [5]: 46 min
CC(C)(c1ccc(F)cc1)N1CCN(C(=O)c2ccc(C(=O)NC3CCN(Cc4ccc(C#N)cc4)CC3)nc2)CC1	6	–	–	–	–
O=C(NC1CCN(Cc2ccccc2)CC1)c1ccc(C(=O)N2CCN(Cc3ccccc3)CC2)nc1	35	1390	–	–	–
O=C(NC1CCN(Cc2ccccc2)CC1)c1ccc(C(=O)N2CCN(Cc3ccccc3)CC2)cn1	16	–	–	–	–
N#Cc1ccc(S(=O)(=O)N2CCC(NC(=O)c3ccc(C(=O)N4CCN(Cc5ccc(F)cc5)CC4)cn3)CC2)cc1	804	–	–	–	–
COc1ccc(C(=O)C2CCN(C(=O)c3ccc(C(=O)NC4CCN(Cc5ccc(F)cc5)CC4)cn3)CC2)cc1	27	2390	> 20000	> 20000	inhibition at 3 µM (hERG (KCNH2) [7]): 64%; half-life [5]: 71 min

SMILES	EC50 [1] [nM]	IC50 [2] [nM]	IC50 (A549) [nM]	IC50 (NCI-H1299) [nM]	also measured
O=C(NC1CCN(Cc2ccc(F)cc2)CC1)c1ccc(C(=O)N2CCC(C(=O)c3ccc(-n4cccn4)cc3)CC2)nc1	21	890	5930	6580	inhibition at 10 µM (hERG (KCNH2) [4]): 85%
N#Cc1ccc(CN2CCC(NC(=O)c3ccc(C(=O)N4CCC(C(O)c5ccc(F)cc5)CC4)cn3)CC2)cc1 (stereo not drawn)	55	619	–	–	–
N#Cc1ccc(CN2CCC(NC(=O)c3ccc(C(=O)N4CCC(C(=O)c5ccc(-n6ccnc6)cc5)CC4)nc3)CC2)cc1	312	–	15100	15100	–
N#Cc1ccc(CN2CCC(NC(=O)c3ccc(C(=O)N4CCC(C(=O)c5ccc(-n6cncn6)cc5)CC4)nc3)CC2)cc1	437	–	4820	6310	–
COc1ccc(C(=O)C2CCN(C(=O)c3ccc(C(=O)NC4CCN(Cc5ccc(N)cc5)CC4)cn3)CC2)cc1	1000	–	8990	13800	–
COc1ccc(C(=O)C2CCN(C(=O)c3ccc(C(=O)NC4CCN(Cc5ccc(NC(C)=O)cc5)CC4)cn3)CC2)cc1	1000	–	8790	11000	–
COc1ccc(C(=O)C2CCN(C(=O)c3ccc(C(=O)NC4CCN(Cc5ccc(S(C)(=O)=O)cc5)CC4)cn3)CC2)cc1	–	–	9140	5520	–
N#Cc1ccc(CN2CCC(NC(=O)c3ccc(C(=O)N4CCN(Cc5ccc(F)cc5)C(=O)C4)cn3)CC2)cc1	466	–	–	–	–
O=C(NC1CCN(C(=O)c2ccccc2)CC1)c1ccc(C(=O)N2CCN(Cc3ccc(F)cc3)CC2)cn1	240	–	–	–	–
N#Cc1ccc(CN2CCC(NC(=O)c3ccc(C(=O)N4CCC(Oc5ccc(F)cc5F)CC4)nc3)CC2)cc1	13	522	–	–	inhibition at 3 µM (hERG (KCNH2) [7]): 36%
N#Cc1ccc(CN2CCC(NC(=O)c3ccc(C(=O)N4CCC(C(=O)c5ccc(F)cc5F)CC4)cn3)CC2)cc1	27	8	–	–	IC50 (Cytochrome P450 3A4 [6]): > 10000 nM; inhibition at 3 µM (hERG (KCNH2) [7]): 34%; IC50 (Cytochrome P450 3A4 [8]): > 10000 nM; half-life [5]: 63 min
CC(C)(C)C(=O)N1CCN(C(=O)c2ccc(C(=O)NC3CCN(Cc4ccc(C#N)cc4)CC3)nc2)CC1	532	–	–	–	–
CS(=O)(=O)c1ccc(C(=O)C2CCN(C(=O)c3ccc(C(=O)NC4CCN(Cc5ccc(F)cc5)CC4)cn3)CC2)cc1	2000	–	6270	8700	inhibition at 3 µM (hERG (KCNH2) [7]): 83%
N#Cc1ccc(CN2CCC(NC(=O)c3ccc(C(=O)N4CCC(F)(C(=O)c5ccc(F)cc5)CC4)cn3)CC2)cc1	2	16	–	–	IC50 (Cytochrome P450 3A4 [6]): > 10000 nM; IC50 (Cytochrome P450 3A4 [8]): > 10000 nM; half-life [5]: 27 min
N#Cc1ccc(CN2CCC(NC(=O)c3ccc(C(=O)N4CCN(C(=O)c5ccccc5)CC4)cn3)CC2)cc1	1390	–	–	–	–
CC(C)(c1ccccc1)N1CCC(NC(=O)c2ccc(C(=O)N3CCN(Cc4ccc(F)cc4)CC3)cn2)CC1	2790	–	–	–	–
N#Cc1ccc(CN2CCC(NC(=O)c3ccc(C(=O)N4CCC(C(=O)c5ccc(-n6cccn6)cc5)CC4)nc3)CC2)cc1	86	–	10400	10900	–
N#Cc1ccc(CN2CCC(NC(=O)c3ccc(C(=O)N4CCC(C(F)c5ccc(F)cc5)CC4)cn3)CC2)cc1 (stereo not drawn)	6	1	–	–	IC50 (Cytochrome P450 3A4 [6]): 9800 nM; half-life [5]: 8 min
N#Cc1ccc(CN2CCC(NC(=O)c3ccc(C(=O)N4CCN(Cc5ccc(F)cc5)CC4)cn3)CC2)cc1	1	–	–	–	clearance [3]: 200 mL/min/kg; inhibition at 3 µM (hERG (KCNH2) [7]): 36%; half-life [5]: 55 min
N#Cc1ccc(CN2CCC(NC(=O)c3ccc(C(=O)N4CCC(C(=O)c5ccc(C#N)cc5)CC4)cn3)CC2)cc1	5	794	–	–	inhibition at 3 µM (hERG (KCNH2) [7]): 54%
N#Cc1ccc(CN2CCC(NC(=O)c3ccc(C(=O)N4CCC(Oc5ccc(C#N)cc5)CC4)nc3)CC2)cc1	92	476	–	–	–
CC1(C)CN(C(=O)c2ccc(C(=O)NC3CCN(Cc4ccc(C#N)cc4)CC3)nc2)CCN1Cc1ccc(F)cc1	1	–	–	–	–
N#Cc1ccc(CN2CCC(NC(=O)c3ccc(C(=O)N4CCN(S(=O)(=O)c5ccccc5)CC4)cn3)CC2)cc1	360	–	–	–	–
O=C(NC1CCN(Cc2ccc(OC(F)(F)F)cc2)CC1)c1ccc(C(=O)N2CCC(C(=O)c3ccc(N4CCCC4)cc3)CC2)nc1	9	1280	5060	8280	–
N#Cc1ccc(CN2CCC(NC(=O)c3ccc(C(=O)N4CCC(Cc5ccccc5)CC4)cn3)CC2)cc1	110	–	–	–	–
N#Cc1ccc(CN2CCC(NC(=O)c3ccc(C(=O)N4CCN(S(=O)(=O)c5ccc(F)cc5)CC4)cn3)CC2)cc1	393	–	–	–	–
COc1ccc(C(=O)C2CCN(C(=O)c3ccc(C(=O)NC4CCN(Cc5ccc(C(=O)N(C)C)cc5)CC4)cn3)CC2)cc1	1050	–	13400	> 20000	–
